Starred links: 1 amine or outer side, 2 acyl side, 3 side chain; linkers in the order of their positions; H or OH if unused. Positions of bridges follow the written chain, without caps; N, C: chain ends. Non-standard residues stand in square brackets, D forms with d. Residues, ends and D or L forms follow the SMILES beside them. *: point of attachment. NMeF = CN[C@@H](Cc1ccccc1)C(=O)O; NMeGABA = CN(CCCC(=O)[*:2])[*:1]; NMeI = CC[C@H](C)[C@H](NC)C(=O)O; NMeT = CN[C@H](C(=O)O)[C@@H](C)O; hPhe = N[C@@H](CCc1ccccc1)C(=O)O; NMeβAla = CN(CCC(=O)[*:2])[*:1]; NMeD = CN[C@@H](CC(=O)O)C(=O)O; NMeL = CN[C@@H](CC(C)C)C(=O)O; NMeV = CN[C@H](C(=O)O)C(C)C; d(β3hA) = C[C@@H](N)CC(=O)O; NMeAbu = CC[C@H](NC)C(=O)O; NMeA = CN[C@@H](C)C(=O)O; Piperidide = C1CCN(*)CC1; Abu = CC[C@H](N)C(=O)O; βAla = NCCC(=O)O; Sar = CNCC(=O)O; tBu = CC(C)(C)*
What was measured:
[1] = Metabolic stability test: liver microsomal stability assay; assay type: in vitro ADME, mouse; conditions: mouse liver microsomes 0.5 mg protein/mL, compound 1 µM; for microsomal CLint at 1 µM: male, pH 7.4, presence of NADPH, read-out: Mouse Hepatic Microsome CLh,int NADPH(+); for Mouse Hepatic Microsome CLh,int NADPH(-): absence of NADPH
Method: Under the presence and absence of NADPH, a microsome solution prepared to a concentration of 0.5 mg protein/mL using 100 mM phosphate buffer (pH 7.4) with mouse liver microsomes (male, Corning Incorporated, USA) and the compound at a concentration of 1 µM were subjected to a metabolic reaction for 22 minutes, 44 minutes, or 66 minutes. Protein removal processing was performed over time using acetonitrile, and the remaining amount of unchanged compound was analyzed using LCMS to calculate the intrinsic hepatic clearance (CLh, int) (Table 6).

Caco-2 cells = test: Membrane permeability test using Caco-2 cells with preincubation; assay type: in vitro ADME; conditions: preincubation 20 to 24 hours; for Caco2 Papp (10^-6 cm/sec): Caco-2 cells, apical FaSSIF/HBSS 1% DMSO pH 6.0, basal HBSS 4% BSA pH 7.4, basal sample at 180 minutes; for Caco2 Papp: Apical FaSSIF/HBSS pH 6.0, Basal HBSS 4% BSA pH 7.4, 180 minutes
Method: (§1) The permeability coefficient (Caco-2 Papp (cm/sec)) is calculated using a numerical expression 1. [Expression 1] Papp = (1)/(C1 (0) × S) × (dQ)/(dt) [formula] dQ/dt represents the permeation rate of drug (the amount of drug appearing on the Basal side per unit time), S represents the total surface area of cells, and C1(0) represents the concentration of drug added on the Apical side.
(§2) Using a mixed medium of FaSSIF containing 1% DMSO and DMEM as the apical medium, and DMEM as the basal medium, Caco-2 cells and peptide compounds are preincubated for 20 to 24 hours under conditions of 5% CO2, 37°C, and 80 rpm. Afterward, the culture medium on the Apical side and the Basal side are aspirated and washed, the peptide compound was added to a FaSSIF/HBSS buffer solution containing 1% DMSO (1% DMSO) (pH 6.0) at the Apical side, a HBSS buffer solution containing 4% BSA (pH 7.4) was added to the Basal side, and measurement of membrane permeability is started. Each well is shaken under 5% CO2 at 37°C and 80 rpm, and at 180 minutes after the start of shaking, a sample on the Basal side is collected. The amount of peptide compounds in the sample was measured using LCMS, and the membrane permeability coefficient was calculated from the permeation amount (Table 7). When calculating the membrane permeability coefficient (Papp) from the permeation amount, the following expression can be used. Papp = (dQ)/(dt) × (1)/(C1 (0) × S) [formula]
(§3) dQ/dt represents the permeation rate of drug (the amount of drug appearing on the Basal side per unit time), C1(0) represents the concentration of drug added on the Apical side, and S represents the total surface area of cells.

[2] = as above; assay type: in vitro ADME; conditions: Caco-2; preincubation 20 to 24 hours; Apical FaSSIF/HBSS pH 6.0, Basal HBSS 4% BSA pH 7.4; 180 minutes; read-out: Caco2 Papp
Method: as §1, §2, §3

Row | SMILES | microsomal CLint at 1 µM [1] | Mouse Hepatic Microsome CLh,int NADPH(-) [1] | Caco2 Papp (10^-6 cm/sec) (Caco-2 cells) | Papp A→B [2] | Caco2 Papp (Caco-2 cells)
1 | CC[C@H](C)[C@H]1C(=O)N[C@@H](Cc2ccccc2)C(=O)N2CCC[C@H]2C(=O)N(C)[C@@H](CC(C)C)C(=O)N[C@@H](COC(C)(C)C)C(=O)N(C)[C@@H](Cc2ccccc2)C(=O)N[C@@H]([C@@H](C)O)C(=O)N(C)[C@@H](CC)C(=O)N2CCC[C@H]2C(=O)N(C)[C@@H](CC(C)C)C(=O)N(C)[C@@H](C(C)C)C(=O)N[C@H](C(=O)N2CCCCC2)CC(=O)N(C)CCCC(=O)N(C)[C@@H](CC(C)C)C(=O)N1C [pd001] ([NMeGABA][NMeL][NMeI]FP[NMeL]S(tBu)[NMeF]T[NMeAbu]P[NMeL][NMeV]D-Piperidide; lactam N-14) | 34.2 µL/min/mg | 29.6 µL/min/mg Protein | 0.94 10^-6 cm/sec | 0.94 ×10⁻⁶ cm/s | 
2 | CC[C@H](C)[C@@H]1NC(=O)[C@@H]2CCCN2C(=O)[C@H](CC(C)C)N(C)C(=O)[C@H](Cc2ccccc2)N(C)C(=O)[C@H]([C@@H](C)CC)N(C)C(=O)[C@H]([C@@H](C)O)NC(=O)[C@H](Cc2ccccc2)N(C)C(=O)[C@H](CC)N(C)C(=O)[C@H](C(C)C)NC(=O)[C@H](CC)N(C)C(=O)[C@H](CC(C)C)N(C)C(=O)[C@H](C)N(C)C(=O)C[C@@H](C(=O)N2CCCCC2)NC(=O)[C@H](C(C)C)N(C)C1=O [pd002] ([NMeA][NMeL][NMeAbu]V[NMeAbu][NMeF]T[NMeI][NMeF][NMeL]PI[NMeV]D-Piperidide; lactam N-14) | 34.2 µL/min/mg | 30.1 µL/min/mg Protein | 0.39 10^-6 cm/sec | 0.39 ×10⁻⁶ cm/s | 
3 | CC[C@H](C)[C@H]1C(=O)N[C@@H]([C@@H](C)O)C(=O)N(C)CC(=O)N(C)[C@@H](CC(C)C)C(=O)N(C)[C@@H](Cc2ccccc2)C(=O)N[C@H](C(=O)N2CCCCC2)CC(=O)N(C)[C@@H](C)C(=O)N[C@@H](CC(C)C)C(=O)N(C)[C@@H](Cc2ccccc2)C(=O)N(C)CCC(=O)N(C)[C@@H](CC(C)C)C(=O)N[C@@H](CC(C)C)C(=O)N(C)[C@@H](C)C(=O)N(C)[C@@H](CC)C(=O)N1C [pd003] ([NMeA]L[NMeF][NMeβAla][NMeL]L[NMeA][NMeAbu][NMeI]T[Sar][NMeL][NMeF]D-Piperidide; lactam N-14) | 17.9 µL/min/mg | 19.0 µL/min/mg Protein | 0.27 10^-6 cm/sec | 0.27 ×10⁻⁶ cm/s | 
4 | CC[C@H](C)[C@@H]1NC(=O)[C@H](C)N(C)C(=O)C[C@@H](C(=O)N2CCCCC2)NC(=O)[C@H](CC)N(C)C(=O)[C@H](COC(C)(C)C)NC(=O)[C@H](CC(C)C)N(C)C(=O)[C@H](C)N(C)C(=O)[C@H](CC(C)C)N(C)C(=O)[C@H](Cc2ccccc2)N(C)C(=O)CN(C)C(=O)[C@H]([C@@H](C)O)NC(=O)[C@H](CC(C)C)N(C)C(=O)[C@H](C(C)C)N(C)C(=O)[C@H](Cc2ccccc2)N(C)C1=O [pd004] ([NMeA]I[NMeF][NMeV][NMeL]T[Sar][NMeF][NMeL][NMeA][NMeL]S(tBu)[NMeAbu]D-Piperidide; lactam N-14) | 36.2 µL/min/mg | 27.4 µL/min/mg Protein | 0.82 10^-6 cm/sec | 0.82 ×10⁻⁶ cm/s | 
5 | CC[C@@H]1NC(=O)[C@H](C)N(C)C(=O)[C@H](CC(C)C)N(C)C(=O)[C@H]([C@@H](C)O)N(C)C(=O)[C@H](CC(C)C)N(C)C(=O)CCNC(=O)[C@H](Cc2ccccc2)N(C)C(=O)CN(C)C(=O)C[C@@H](C(=O)N2CCCCC2)NC(=O)[C@H](C(C)C)N(C)C(=O)[C@H](C)N(C)C(=O)[C@@H]2CCCN2C(=O)[C@H](C(C)C)NC(=O)[C@H](Cc2ccccc2)N(C)C1=O [pd005] ([Sar][NMeF][βAla][NMeL][NMeT][NMeL][NMeA][Abu][NMeF]VP[NMeA][NMeV]D-Piperidide; lactam N-14) | 1.4 µL/min/mg | 1.1 µL/min/mg Protein | 0.05 10^-6 cm/sec | 0.05 ×10⁻⁶ cm/s | 
6 | CC[C@@H]1NC(=O)[C@H]([C@@H](C)CC)NC(=O)[C@H](Cc2ccccc2)N(C)C(=O)[C@H](CC(C)C)N(C)C(=O)[C@H](CC(C)C)NC(=O)CCN(C)C(=O)C[C@@H](C(=O)N2CCCCC2)NC(=O)[C@H](C(C)C)NC(=O)[C@H](CC(C)C)N(C)C(=O)[C@H](C)N(C)C(=O)[C@H](C(C)C)NC(=O)[C@H](CC(C)C)N(C)C(=O)[C@H](COC(C)(C)C)NC(=O)[C@H](Cc2ccccc2)N(C)C1=O [pd015] ([NMeβAla]L[NMeL][NMeF]I[Abu][NMeF]S(tBu)[NMeL]V[NMeA][NMeL]VD-Piperidide; lactam N-14) | 32.5 µL/min/mg | 26.2 µL/min/mg Protein | 0.04 10^-6 cm/sec |  | 0.04 10^-6 cm/sec
7 | CC[C@@H]1NC(=O)[C@H](CC(C)C)N(C)C(=O)[C@H](COC(C)(C)C)NC(=O)[C@H](Cc2ccccc2)N(C)C(=O)[C@H](CC)NC(=O)[C@H](Cc2ccccc2)N(C)C(=O)[C@H](C)N(C)C(=O)[C@H](CC(C)C)N(C)C(=O)[C@H](CC(C)C)NC(=O)CCCN(C)C(=O)C[C@@H](C(=O)N2CCCCC2)NC(=O)[C@H](CC(C)C)N(C)C(=O)[C@H](C(C)C)NC(=O)[C@H](C)N(C)C1=O [pd016] ([NMeGABA]L[NMeL][NMeA][NMeF][Abu][NMeF]S(tBu)[NMeL][Abu][NMeA]V[NMeL]D-Piperidide; lactam N-14) | 49.9 µL/min/mg | 32.9 µL/min/mg Protein | 0.47 10^-6 cm/sec |  | 0.47 10^-6 cm/sec
8 | CC[C@@H]1NC(=O)CCN(C)C(=O)C[C@@H](C)NC(=O)[C@H](CC(C)C)N(C)C(=O)[C@H]([C@@H](C)O)NC(=O)[C@H](C)N(C)C(=O)[C@H]([C@@H](C)CC)NC(=O)[C@H](CCc2ccccc2)NC(=O)[C@H](CC(C)C)N(C)C(=O)[C@H](C)N(C)C(=O)[C@H](Cc2ccccc2)N(C)C(=O)[C@@H]2CCCN2C(=O)[C@H]([C@@H](C)CC)NC(=O)[C@H](CC(C)C)N(C)C1=O [pd051] (cyclo([Abu][NMeL]IP[NMeF][NMeA][NMeL][hPhe]I[NMeA]T[NMeL][d(β3hA)][NMeβAla])) | 24.6 µL/min/mg | 28.8 µL/min/mg Protein | 0.21 10^-6 cm/sec |  | 0.21 10^-6 cm/sec
9 | CC[C@H](C)[C@H]1C(=O)N[C@@H](CC(C)C)C(=O)N(C)[C@@H](CC(C)C)C(=O)N(C)[C@@H](C(C)C)C(=O)N(C)[C@@H](C)C(=O)N[C@@H]([C@@H](C)O)C(=O)N(C)[C@@H](CC(C)C)C(=O)N[C@H](C)CC(=O)N(C)CCC(=O)N[C@@H](CCc2ccccc2)C(=O)N(C)[C@@H](CC(C)C)C(=O)N2CCC[C@H]2C(=O)N(C)[C@@H](Cc2ccccc2)C(=O)N(C)[C@@H](C)C(=O)N1C [pd060] (cyclo(L[NMeL][NMeV][NMeA]T[NMeL][d(β3hA)][NMeβAla][hPhe][NMeL]P[NMeF][NMeA][NMeI])) | 32.4 µL/min/mg | 38.6 µL/min/mg Protein | 0.63 10^-6 cm/sec |  | 0.63 10^-6 cm/sec
10 | CC[C@H](C)[C@@H]1NC(=O)[C@H]([C@@H](C)CC)N(C)C(=O)[C@@H](C)NC(=O)C[C@@H](C(=O)N2CCCCC2)N(C)C(=O)[C@H](C(C)C)NC(=O)[C@H](Cc2ccccc2)N(C)C(=O)[C@H](C(C)C)NC(=O)[C@H](CC(C)C)N(C)C(=O)[C@H](C)NC(=O)CN(C)C(=O)[C@H](CC(C)C)N(C)C(=O)[C@H](C(C)C)NC(=O)[C@H](C)N(C)C(=O)[C@H](Cc2ccccc2)N(C)C1=O [pd074] ([dA][NMeI]I[NMeF][NMeA]V[NMeL][Sar]A[NMeL]V[NMeF]V[NMeD]-Piperidide; lactam N-14) | 26.9 µL/min/mg | 26.9 µL/min/mg Protein | 0.22 10^-6 cm/sec |  | 0.22 10^-6 cm/sec
11 | CC[C@@H]1NC(=O)[C@H](CC(C)C)N(C)C(=O)[C@H](C)NC(=O)CN(C)C(=O)[C@H](CC(C)C)N(C)C(=O)CCN(C)C(=O)[C@H](Cc2ccccc2)N(C)C(=O)[C@H]([C@@H](C)CC)NC(=O)[C@H]([C@@H](C)CC)N(C)C(=O)[C@@H](C)NC(=O)C[C@@H](C(=O)N2CCCCC2)N(C)C(=O)[C@H](Cc2ccccc2)N(C)C(=O)[C@H](C(C)C)NC(=O)[C@H](C)N(C)C1=O [pd076] ([dA][NMeI]I[NMeF][NMeβAla][NMeL][Sar]A[NMeL][Abu][NMeA]V[NMeF][NMeD]-Piperidide; lactam N-14) | 10.9 µL/min/mg | 18.2 µL/min/mg Protein | <0.10 10^-6 cm/sec |  | <0.10 10^-6 cm/sec

Source: patent publication EP4768499A1, “MACROCYCLIC PEPTIDE COMPOUND HAVING CELL MEMBRANE PERMEABILITY AND METABOLIC STABILITY, AND LIBRARY CONTAINING SAME” (Chugai Seiyaku Kabushiki Kaisha, priority 2023, dated 2025)
